Among the test systems are DMS 114 small cell lung; M19-MEL melanoma; SNB-78 CNS; DLD-1 colon; DMS 273 small cell lung; RPMI-8226 leukemia; XF 498 CNS; HOP-18 NSCLC; KM12 colon; LXFL 529 NSCLC; KM20L2 colon; RXF-631 renal.
Test in all cases: NCI-60 cell line screen, 48 h

The structures appear in SMILES notation.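 Tested at 5 concentrations; 48 h exposure; 96-well plates; endpoints linearly interpolated, else capped at highest concentration. At the TGI there is no net growth.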

Consider `CN(/N=C\c1ccnc2ccccc12)c1ccccc1`, for which the TGI in the test with DMS 114 small cell lung was 48.7 µM; with M19-MEL melanoma it was 54 µM; with SNB-78 CNS, greater than 100 µM; with DLD-1 colon, 64.6 µM; in the test on DMS 273 small cell lung, 39.7 µM; with RPMI-8226 leukemia, greater than 100 µM. The TGI was 47.5 µM in the test with XF 498 CNS, greater than 100 µM in the test with HOP-18 NSCLC, 37.4 µM in the test on KM12 colon and 79.7 µM in the test with LXFL 529 NSCLC.
In the case of `O=C(CC1(O)C(=O)Nc2c(Cl)cc(Cl)cc21)c1ccc(F)cc1` (stereo not given), the TGI in the test on KM20L2 colon is greater than 100 µM; in the test with DMS 114 small cell lung, 58.9 µM; with M19-MEL melanoma it was 34 µM; with SNB-78 CNS, greater than 100 µM; in the test with DLD-1 colon, greater than 100 µM; with DMS 273 small cell lung it was greater than 100 µM. Also, the TGI with RXF-631 renal is greater than 100 µM; with RPMI-8226 leukemia, 61.4 µM; in the test on XF 498 CNS it was 39.9 µM; in the test on HOP-18 NSCLC, greater than 100 µM; in the test on KM12 colon, greater than 100 µM; with LXFL 529 NSCLC it was greater than 100 µM.
With `CC(=O)NNc1nc(C)c(C(=O)/C=C/c2ccc(Cl)c(Cl)c2)s1`, the TGI in the test with KM20L2 colon, in the test on DMS 114 small cell lung, in the test with M19-MEL melanoma, in the test with SNB-78 CNS, with DLD-1 colon and in the test with DMS 273 small cell lung was greater than 100 µM in each case. The TGI in the test with RXF-631 renal, with RPMI-8226 leukemia, with HOP-18 NSCLC and with KM12 colon was greater than 100 µM in each case.
With `CC(=O)NC1COC(COC(=O)CCCCCCCCCCNC(=O)c2ccc([N+](=O)[O-])c3c(=O)c4ccccc4[nH]c23)C(O)C1OC(C)C(=O)NC(C(=O)NC(CCC(N)=O)C(=O)OCc1ccccc1)C(C)C` (stereo not given), the TGI was 33.5 µM with KM20L2 colon; 30.4 µM in the test with DMS 114 small cell lung; 10.7 µM in the test with M19-MEL melanoma; greater than 22.8 µM in the test on SNB-78 CNS; 10.1 µM in the test with DLD-1 colon; 27.3 µM in the test on DMS 273 small cell lung. In addition, the TGI in the test with RXF-631 renal was greater than 100 µM; in the test on RPMI-8226 leukemia, 23.1 µM; in the test with XF 498 CNS, 34.8 µM; in the test on HOP-18 NSCLC, 43.9 µM; in the test with KM12 colon it was 11.6 µM; in the test with LXFL 529 NSCLC, greater than 60.6 µM.
In the case of `CCCCCCCCCCCCC(Br)C(C)=O` (stereo not given), the TGI in the test on KM20L2 colon, in the test on DMS 114 small cell lung, with M19-MEL melanoma, in the test with SNB-78 CNS, in the test on DLD-1 colon and in the test on DMS 273 small cell lung was greater than 100 µM throughout. The TGI in the test with RXF-631 renal, in the test with XF 498 CNS, in the test with HOP-18 NSCLC, with KM12 colon and in the test on LXFL 529 NSCLC was greater than 100 µM in each case.
Turning to `CC1=C(C(=O)CC(=O)C(=O)Nc2ccc(C)c(C)c2)Sc2ccccc2N1`, the TGI in the test with KM20L2 colon, in the test with DMS 114 small cell lung, in the test on M19-MEL melanoma, in the test with SNB-78 CNS, in the test with DLD-1 colon and in the test with DMS 273 small cell lung was greater than 100 µM throughout. Moreover, the TGI with RPMI-8226 leukemia, in the test with XF 498 CNS, with HOP-18 NSCLC, in the test with KM12 colon and in the test on LXFL 529 NSCLC was greater than 100 µM throughout.
For `COc1ccc(/C=C2\CCC(CCN3CCOCC3)C2=O)cc1` (stereo not given), the TGI in the test with KM20L2 colon, with DMS 114 small cell lung, in the test on M19-MEL melanoma, in the test with SNB-78 CNS, in the test on DLD-1 colon and in the test with DMS 273 small cell lung was greater than 100 µM each time. The TGI in the test on RPMI-8226 leukemia, in the test on XF 498 CNS, in the test on HOP-18 NSCLC, in the test on KM12 colon and in the test on LXFL 529 NSCLC was greater than 100 µM throughout.
As to `COC(=O)C(=O)C(/C(=N/N)C(=O)Nc1ccccc1C(N)=O)c1nc2ccc([N+](=O)[O-])cc2[nH]c1=O` (stereo not given), the TGI in the test on KM20L2 colon, in the test on DMS 114 small cell lung, in the test on M19-MEL melanoma, with SNB-78 CNS, in the test on DLD-1 colon and with DMS 273 small cell lung was greater than 100 µM throughout. Further, the TGI in the test with RPMI-8226 leukemia, with XF 498 CNS, in the test on KM12 colon and in the test with LXFL 529 NSCLC was greater than 100 µM each time.
For `Cc1nc2c3c(ccc2[nH]c1=O)C(=O)c1ccccc1C3=O`, the TGI in the test on KM20L2 colon, in the test with DMS 114 small cell lung, with M19-MEL melanoma, with DLD-1 colon, in the test on XF 498 CNS and with HOP-18 NSCLC was greater than 100 µM throughout. Moreover, the TGI in the test on KM12 colon and with LXFL 529 NSCLC was greater than 100 µM each time.
As for `C/C(=N/O)c1sc(-c2nc(C)c(/C(C)=N\O)s2)nc1C`, the TGI in the test on KM20L2 colon, with DMS 114 small cell lung, in the test on M19-MEL melanoma, in the test on SNB-78 CNS, in the test on DLD-1 colon and in the test with DMS 273 small cell lung was greater than 100 µM each time. Moreover, the TGI in the test with RXF-631 renal, in the test on RPMI-8226 leukemia, in the test with XF 498 CNS, with HOP-18 NSCLC and in the test with LXFL 529 NSCLC was greater than 100 µM each time.
With `COc1ccc(/C=C/C(=O)c2sc(-c3cccnc3)nc2C)cc1`, the TGI with KM20L2 colon, in the test on DMS 114 small cell lung, in the test on M19-MEL melanoma, with SNB-78 CNS, in the test with DLD-1 colon and with DMS 273 small cell lung was greater than 100 µM each time. Moreover, the TGI was greater than 100 µM with RXF-631 renal, 26.2 µM in the test with RPMI-8226 leukemia, greater than 100 µM in the test with HOP-18 NSCLC and 44.5 µM with KM12 colon.
In the case of `CCN(CC)Cc1cc(Nc2ccnc3ccc4nn(C)nc4c23)ccc1O`, the TGI with KM20L2 colon is 25.3 µM; in the test on M19-MEL melanoma, 24.7 µM; with SNB-78 CNS, 44.9 µM; in the test with RXF-631 renal it was 31.3 µM; in the test with RPMI-8226 leukemia, greater than 100 µM; in the test on XF 498 CNS it was 24.3 µM. Moreover, the TGI in the test with KM12 colon came out at 25.9 µM; in the test on LXFL 529 NSCLC, 27.6 µM.
Consider `NC(CCCCNCc1ccccc1)C(=O)O` (stereo not given), for which the TGI in the test with KM20L2 colon, in the test on DMS 114 small cell lung, in the test on M19-MEL melanoma, in the test with SNB-78 CNS, with DLD-1 colon and in the test on DMS 273 small cell lung was greater than 100 µM throughout. The TGI with RXF-631 renal, in the test on RPMI-8226 leukemia, with HOP-18 NSCLC, with KM12 colon and in the test with LXFL 529 NSCLC was greater than 100 µM throughout.
Turning to `COc1ccccc1NC(=O)CC(=O)N1N=C(c2ccccc2)C(N=Nc2ccc(Cl)cc2)C1=O` (stereo not given), the TGI with KM20L2 colon, in the test on DMS 114 small cell lung, with M19-MEL melanoma, in the test on SNB-78 CNS, in the test with DLD-1 colon and with DMS 273 small cell lung was greater than 100 µM each time. The TGI with RXF-631 renal, with RPMI-8226 leukemia, in the test on XF 498 CNS, in the test on KM12 colon and in the test with LXFL 529 NSCLC was greater than 100 µM throughout.
Regarding `COc1cc(CNc2cnc3ccc(N)cc3n2)cc(OC)c1OC`, the TGI in the test with KM20L2 colon, in the test with DMS 114 small cell lung, in the test on M19-MEL melanoma, in the test on SNB-78 CNS, in the test on DMS 273 small cell lung and in the test on RPMI-8226 leukemia was greater than 100 µM in each case. The TGI in the test on HOP-18 NSCLC, in the test with KM12 colon and in the test on LXFL 529 NSCLC was greater than 100 µM each time.

The values above are taken from PubChem BioAssay (NCI).
